The results in this text go back to ChEMBL document CHEMBL1130226, “2,4-Diaminothieno[2,3-d]pyrimidine lipophilic antifolates as inhibitors of Pneumocystis carinii and Toxoplasma gondii dihydrofolate reductase” (J Med Chem, 1997).

By IC50 is commonly meant the point on the concentration scale where inhibition reaches its midpoint.

The nature of experiment [1]: Selectivity ratio of IC50 (rat liver)/IC50 (Pneumocystis carinii).
Experiment [2] has as its target T1, Dihydrofolate reductase (Pneumocystis carinii, UniProt P16184).
T1 sequence (P16184 whole entry): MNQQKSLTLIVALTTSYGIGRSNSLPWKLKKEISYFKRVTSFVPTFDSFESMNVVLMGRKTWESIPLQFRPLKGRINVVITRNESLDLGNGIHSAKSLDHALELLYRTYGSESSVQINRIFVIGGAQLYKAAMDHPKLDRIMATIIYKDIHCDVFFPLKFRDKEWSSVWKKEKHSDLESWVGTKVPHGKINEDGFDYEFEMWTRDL
Description: Inhibition of Pneumocystis carinii Dihydrofolate Reductase

For experiment [3], the target named is T2, Bifunctional dihydrofolate reductase-thymidylate synthase (Toxoplasma gondii, UniProt Q07422).
T2 sequence (Q07422 whole entry): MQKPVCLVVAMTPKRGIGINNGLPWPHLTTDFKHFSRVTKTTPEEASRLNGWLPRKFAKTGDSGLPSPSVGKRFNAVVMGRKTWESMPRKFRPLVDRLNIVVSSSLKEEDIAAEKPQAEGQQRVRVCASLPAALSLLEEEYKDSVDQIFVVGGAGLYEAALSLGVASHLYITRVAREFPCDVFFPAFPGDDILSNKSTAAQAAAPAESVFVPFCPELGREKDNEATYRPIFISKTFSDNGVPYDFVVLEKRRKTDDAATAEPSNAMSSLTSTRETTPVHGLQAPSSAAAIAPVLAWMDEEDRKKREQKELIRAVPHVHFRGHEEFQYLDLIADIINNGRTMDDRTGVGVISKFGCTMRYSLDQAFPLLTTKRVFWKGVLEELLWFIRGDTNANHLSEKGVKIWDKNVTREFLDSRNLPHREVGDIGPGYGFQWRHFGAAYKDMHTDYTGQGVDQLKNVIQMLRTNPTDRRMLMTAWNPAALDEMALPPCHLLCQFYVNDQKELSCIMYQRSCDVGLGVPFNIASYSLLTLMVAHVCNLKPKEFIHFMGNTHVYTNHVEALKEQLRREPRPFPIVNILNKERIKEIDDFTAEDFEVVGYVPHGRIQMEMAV
Description: Inhibition of Toxoplasma gondii Dihydrofolate Reductase

The target of experiment [4] is T3, Dihydrofolate reductase (Rattus norvegicus, UniProt Q920D2).
T3 sequence (Q920D2 whole entry): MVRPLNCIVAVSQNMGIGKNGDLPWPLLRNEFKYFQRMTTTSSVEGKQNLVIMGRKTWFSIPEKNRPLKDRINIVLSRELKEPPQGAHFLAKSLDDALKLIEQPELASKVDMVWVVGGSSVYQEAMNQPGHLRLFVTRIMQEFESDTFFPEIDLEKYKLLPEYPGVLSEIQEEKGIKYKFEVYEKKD
Description: Inhibition of rat liver Dihydrofolate Reductase

Experiment [5] can be described thus: Selectivity ratio of IC50 (rat liver)/IC50 (Toxoplasma gondii.

Some results are limits rather than exact numbers.

As to `COc1cc(N(C)Cc2c(Br)sc3nc(N)nc(N)c23)cc(OC)c1OC`, the Selectivity ratio in experiment [1] is 0.88. The IC50 against Dihydrofolate reductase [2] came to 31 µM; in experiment [3], 127 µM; on Dihydrofolate reductase [4], 28 µM.

`COc1cc(Cc2cnc(N)nc2N)cc(OC)c1Br` [BRODIMOPRIM]: the Selectivity ratio in experiment [1] amounted to 0.048; in experiment [5], 0.088. The IC50 at Dihydrofolate reductase [2] is 0.031 µM; in experiment [3], 0.017 µM; on Dihydrofolate reductase [4] it was 0.015 µM.

In the case of `COc1cc(NCc2c(Br)sc3nc(N)nc(N)c23)cc(OC)c1OC`, in experiment [1], the Selectivity ratio came out at 1.2. Also, the IC50 is 13 µM against Dihydrofolate reductase [2], 34 µM in experiment [3] and 17 µM on Dihydrofolate reductase [4].

For `COc1ccc(OC)c(NCc2c(Br)sc3nc(N)nc(N)c23)c1`, the IC50 on Dihydrofolate reductase [2] was > 100 µM; in experiment [3], > 100 µM; against Dihydrofolate reductase [4], 33 µM.

For `COc1ccc(OC)c(N(C)Cc2c(Br)sc3nc(N)nc(N)c23)c1`, the IC50 (at Dihydrofolate reductase [2]; in experiment [3]; against Dihydrofolate reductase [4]) was > 10 µM throughout.

As to `Nc1nc(N)c2c(CNc3cc(Cl)c(-n4cccc4)c(Cl)c3)c(Br)sc2n1`, the Selectivity ratio in experiment [1] turned out to be 1.4; in experiment [5], 0.39. Besides, the results for the IC50 (at Dihydrofolate reductase [2]; in experiment [3]; on Dihydrofolate reductase [4]) were 7.5 µM, 26 µM and 10 µM, respectively.
